Tests used:
[1] = target: Norepinephrine transporter (Rattus norvegicus, UniProt Q9WTR4); experiment: Binding affinity against Norepinephrine transporter using [3H]nisoxetine in midbrain of rat; assay type: tissue-based
[2] = target: T1, Sodium-dependent dopamine transporter (Rattus norvegicus, UniProt P23977); experiment: Binding affinity against Dopamine transporter using [3H]WIN-35 428 in rat striatum; assay type: tissue-based
[3] = target: Sodium-dependent serotonin transporter (Rattus norvegicus, UniProt P31652); experiment: Binding affinity against serotonin transporter using [3H]paroxetine in rat frontal cortex; assay type: tissue-based
Sequence of Sodium-dependent serotonin transporter (P31652 whole entry): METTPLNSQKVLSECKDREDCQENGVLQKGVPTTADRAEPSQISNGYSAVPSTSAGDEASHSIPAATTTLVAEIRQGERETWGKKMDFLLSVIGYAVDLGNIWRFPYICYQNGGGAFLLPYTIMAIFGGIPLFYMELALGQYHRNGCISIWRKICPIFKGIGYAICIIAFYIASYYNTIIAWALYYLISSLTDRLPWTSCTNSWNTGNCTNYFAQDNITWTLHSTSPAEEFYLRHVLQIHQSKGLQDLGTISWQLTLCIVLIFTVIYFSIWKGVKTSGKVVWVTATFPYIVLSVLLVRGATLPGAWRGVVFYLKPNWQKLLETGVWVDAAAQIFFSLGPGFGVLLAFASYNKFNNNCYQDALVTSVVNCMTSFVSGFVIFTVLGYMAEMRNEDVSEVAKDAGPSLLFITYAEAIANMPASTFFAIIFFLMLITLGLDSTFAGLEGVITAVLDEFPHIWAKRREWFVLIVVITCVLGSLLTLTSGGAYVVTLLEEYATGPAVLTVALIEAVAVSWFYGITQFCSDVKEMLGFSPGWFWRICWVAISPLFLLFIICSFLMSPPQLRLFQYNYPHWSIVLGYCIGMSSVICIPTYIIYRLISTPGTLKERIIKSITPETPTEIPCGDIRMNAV

[4] = target: T1, Sodium-dependent dopamine transporter; experiment: Ability to inhibit [3H]dopamine uptake into rat striatal synaptosomes; assay type: subcellular, Brain
[5] = target: T1, Sodium-dependent dopamine transporter; experiment: Ability to inhibition uptake of […]

T1 sequence (P23977 whole entry): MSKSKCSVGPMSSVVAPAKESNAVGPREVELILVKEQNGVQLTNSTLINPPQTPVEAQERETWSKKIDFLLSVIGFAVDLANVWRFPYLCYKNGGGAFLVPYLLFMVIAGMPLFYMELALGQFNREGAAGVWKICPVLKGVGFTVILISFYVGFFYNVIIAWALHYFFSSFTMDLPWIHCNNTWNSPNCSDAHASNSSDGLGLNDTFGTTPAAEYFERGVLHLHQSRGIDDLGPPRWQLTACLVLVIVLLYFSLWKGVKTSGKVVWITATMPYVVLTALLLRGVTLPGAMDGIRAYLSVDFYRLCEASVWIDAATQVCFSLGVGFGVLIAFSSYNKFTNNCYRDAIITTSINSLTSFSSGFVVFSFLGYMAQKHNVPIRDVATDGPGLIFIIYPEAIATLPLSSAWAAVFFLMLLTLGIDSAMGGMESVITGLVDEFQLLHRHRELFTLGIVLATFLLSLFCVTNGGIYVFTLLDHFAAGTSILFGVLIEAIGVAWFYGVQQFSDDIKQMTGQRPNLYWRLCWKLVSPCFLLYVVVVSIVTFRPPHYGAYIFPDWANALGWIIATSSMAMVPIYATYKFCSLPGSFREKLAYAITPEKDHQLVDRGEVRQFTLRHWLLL
Sequence of Norepinephrine transporter (Q9WTR4 whole entry): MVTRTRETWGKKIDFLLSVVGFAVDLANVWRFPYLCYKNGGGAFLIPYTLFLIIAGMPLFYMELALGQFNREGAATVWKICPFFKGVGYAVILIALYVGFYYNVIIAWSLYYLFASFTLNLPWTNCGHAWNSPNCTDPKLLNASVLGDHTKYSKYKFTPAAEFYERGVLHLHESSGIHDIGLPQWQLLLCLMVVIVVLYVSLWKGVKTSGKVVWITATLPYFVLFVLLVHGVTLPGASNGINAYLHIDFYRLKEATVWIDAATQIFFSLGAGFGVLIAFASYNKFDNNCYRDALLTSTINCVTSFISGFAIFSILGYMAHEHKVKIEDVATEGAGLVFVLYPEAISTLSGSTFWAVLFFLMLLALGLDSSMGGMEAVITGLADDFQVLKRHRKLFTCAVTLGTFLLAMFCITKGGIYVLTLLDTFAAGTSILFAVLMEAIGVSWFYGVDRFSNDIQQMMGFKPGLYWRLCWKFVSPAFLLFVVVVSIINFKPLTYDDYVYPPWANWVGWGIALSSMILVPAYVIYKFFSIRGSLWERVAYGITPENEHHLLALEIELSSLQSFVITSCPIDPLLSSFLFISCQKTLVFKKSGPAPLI

Structure (SMILES)	IC50 [1]	IC50 [2]	IC50 [3]	Ki [4]	Ki [5]
COC(=O)[C@@H]1C2CC[C@H](C[C@@H]1c1ccc(C)cc1)N2C	60 nM				
Cc1ccc(C2C[C@H]3CCC([C@H]2c2cc(-c4ccccc4)no2)N3C)cc1 (some centres not stated)	398 nM	1.58 nM	5110 nM		
CN1C2CC[C@@H]1CC(c1ccc(Cl)cc1)[C@@H]2c1ncc(-c2ccccc2)s1 (some centres not stated)	8560 nM	5.71 nM	10300 nM		
Cc1cc([C@H]2C(c3ccc(Cl)cc3)C[C@H]3CCC2N3C)on1 (some centres not stated)	181 nM	0.59 nM	572 nM		
CN1C2CCC1[C@@H](c1nnc(-c3ccccc3)s1)C(c1ccc(Cl)cc1)C2 (some centres not stated)	4140 nM	15.3 nM	18400 nM		
Cc1ccc(C2C[C@H]3CCC([C@H]2c2nn[nH]n2)N3C)cc1 (some centres not stated)	32500 nM	1560 nM	43600 nM		
CN1C2CC[C@@H]1CC(c1ccc(Cl)cc1)[C@@H]2c1nnn[nH]1 (some centres not stated)	17400 nM		5460 nM		
Cc1ccc(C2C[C@H]3CCC([C@H]2c2nnc(C)o2)N3C)cc1 (some centres not stated)	253 nM	4.45 nM	4890 nM		
CN1C2CC[C@@H]1CC(c1ccc(Cl)cc1)[C@H]2c1nc2ccccc2s1 (some centres not stated)	59500 nM	188 nM	5210 nM		
CN1C2CC[C@@H]1CC(c1ccc(Cl)cc1)[C@@H]2c1nnc(-c2ccccc2)o1 (some centres not stated)	929 nM	12.6 nM	3300 nM	18.7 nM	
Cc1ccc(C2C[C@H]3CCC([C@H]2C(=O)Oc2ccccc2)N3C)cc1 (some centres not stated)	5800 nM	3.26 nM	24500 nM		
Cc1ccc(C2C[C@H]3CCC([C@@H]2c2nnc(-c4ccccc4)o2)N3C)cc1 (some centres not stated)	48700 nM	523 nM	65000 nM		
Cc1ccc(C2C[C@H]3CCC([C@H]2c2ncc(-c4ccccc4)o2)N3C)cc1 (some centres not stated)	677 nM	35.4 nM	1700 nM		
CN1C2CC[C@@H]1CC(c1ccc(Cl)cc1)[C@@H]2c1nc2ccccc2s1 (some centres not stated)	403 nM	1.37 nM	1120 nM		
CN1C2CCC1[C@@H](c1nc(-c3ccccc3)no1)C(c1ccc(Cl)cc1)C2 (some centres not stated)	245 nM	1.62 nM	195 nM	0.59 nM	
Cc1ccc(C2C[C@H]3CCC([C@H]2c2nnc(-c4ccccc4)s2)N3C)cc1 (some centres not stated)	24300 nM	35.9 nM	51500 nM		
CN1C2CC[C@@H]1CC(c1ccc(Cl)cc1)[C@@H]2C(=O)O (some centres not stated)	> 200000 nM	2070 nM	59500 nM		
CN1C2CC[C@@H]1CC(c1ccc(I)cc1)[C@@H]2c1cc(-c2ccccc2)no1 (some centres not stated)	868 nM	2.57 nM	100 nM		
CN1C2CC[C@@H]1CC(c1ccc(Cl)cc1)[C@H]2c1nnc(-c2ccccc2)o1 (some centres not stated)	286000 nM	1100 nM	19200 nM		
CN1C2CC[C@@H]1CC(c1ccc(Cl)cc1)[C@@H]2c1cc(-c2ccccc2)no1 (some centres not stated)	504 nM	1.28 nM	2420 nM	2.08 nM	
Cc1ccc(C2C[C@H]3CCC([C@H]2c2nnc(-c4ccccc4)o2)N3C)cc1 (some centres not stated)	1310 nM	47.5 nM	23300 nM		
CN1C2CCC1[C@@H](c1ncc(-c3ccccc3)o1)C(c1ccc(Cl)cc1)C2 (some centres not stated)	496 nM	19.7 nM	1120 nM	19 nM	
Cc1ccc(C2C[C@H]3CCC([C@H]2c2cc(C)no2)N3C)cc1 (some centres not stated)	254 nM	0.93 nM	3820 nM		
Cc1ccc(C2C[C@H]3CCC([C@H]2c2nc(-c4ccccc4)no2)N3C)cc1 (some centres not stated)	60 nM	2.33 nM	1070 nM		
Cc1cc([C@H]2C(c3ccc(I)cc3)C[C@H]3CCC2N3C)on1 (some centres not stated)	67.9 nM	0.73 nM	36.4 nM		
CN1C2CC[C@@H]1CC(c1ccc(Cl)cc1)[C@@H]2C(=O)Oc1ccccc1 (some centres not stated)	2950 nM	1.98 nM	2300 nM		5.25 nM
Cc1noc([C@H]2C(c3ccc(Cl)cc3)C[C@H]3CCC2N3C)n1 (some centres not stated)	363 nM		2580 nM		

— ChEMBL document CHEMBL1129370, “Synthesis, ligand binding, and quantitative structure-activity relationship study of 3 beta-(4'-substituted phenyl)-2 beta-heterocyclic tropanes: evidence for an electrostatic interaction at the 2 beta-position” (J Med Chem, 1996)
